Source: patent US12465648B2, “Heterobifunctional compounds as degraders of HPK1” (ICAHN SCHOOL OF MEDICINE AT MOUNT SINAI, priority 2019, dated 2025)

What was measured:
CD4+ T cells = test: CD28-independent IL-2 production by CD4+ T cells; assay type: cell-based; settings: fixed concentration of plate-bound antibody, varying concentrations of soluble anti-CD28 mAb (FIG. 6)
HPK1 [1] = biological target: T1, HPK1 (Homo sapiens, UniProt Q92918); test: Western blot analysis of endogenous HPK1 level in Jurkat T cells; assay type: cell-based; settings: for reducing HPK1 protein levels: characterization of exemplary degraders (FIGS. 1-14)
T1 construct: endogenous in cells; host or cells: Jurkat T cells

[2] = test system: CD4+ primary murine T cells; test: CD28-independent IL-2 production by CD4+ primary murine T cells (IL-2 ELISA); assay type: cell-based, mouse; settings: 500 nM, plate-bound anti-CD3 mAb 5 μg/mL, varying soluble anti-CD28 mAb
Description: EXAMPLE 34. I was observed that HPK1^−/− T cells, unlike their wild type counterparts, could readily produce IL-2 in response to CD3 □ crosslinking alone (data not shown). To assess whether HPK1 degraders could confer the same ability to produce IL-2 in a CD28-independent manner, CD4^+ primary murine T cells prepared as described in FIG. 5 were treated with 500 nM of HC58-75 HPK1 degrader or DMSO or Pomalidomide as controls. Their abilities to produce IL-2 in response a fixed concentration of plate-bound anti-CD3[…] mAb (5 μg/mL) in conjunction with varying soluble concentration of anti-CD28 mAb was then assessed.

primary murine T cells = test: IL-2 production by primary murine T cells; assay type: cell-based, mouse
Description: (§1) EXAMPLE 348. Several compounds according to the present invention employing the indolin-2-one HPK1 binding base, (which henceforth shall be referred to as the HC58 series, the HC65 series and the HC75 series) were assessed on their abilities to degrade HPK1 and produce an elevated IL-2 response profile upon stimulation by anti-CD3- and anti-CD28-mAb-mediated (CD3XCD28) stimulation (FIGS. 1-4). The elevated IL-2 response profile induced by TCR engagement after exposure to HC58 series of HPK1 degraders is shown in FIG. 1. […] A select sub-set of the lead HPK1 degraders from the HC58 series were further characterized to determine whether they could degrade primary mouse T cells.

Jurkat T cells = test: IL-2 production by Jurkat cells on CD3XCD28 stimulation (IL-2 ELISA); assay type: cell-based, human; settings: wider ranges of compound concentrations
Description: as §1
EXAMPLE 351. […] Furthermore, compound HC58-78 and HC90-50 were also assessed for their abilities to enhance the CD3XCD28-induced IL-2 response by primary human PBMC (FIG. 10).
For the synthesis of intermediates and examples (1-89) below, HPLC spectra for all compounds were acquired using an Agilent 1200 Series system with DAD detector. […] Clone E6-1 cells is a preferred cellular platform for studying T cell activation in response to T cell receptor engagement because it produces the cytokine IL-2, which could be used as proxy readout for the level of T cell activation. […]

HPK1 [3] = biological target: T2, HPK1 (Mus musculus, UniProt P70218); test: HPK1 degradation in primary mouse T cells; assay type: cell-based; settings: 300 nM
T2 construct: HPK1 degraders could effectively degrade endogenous HPK1 in murine T cells; endogenous in cells; host or cells: primary mouse T cells
T2 sequence (P70218 1-827): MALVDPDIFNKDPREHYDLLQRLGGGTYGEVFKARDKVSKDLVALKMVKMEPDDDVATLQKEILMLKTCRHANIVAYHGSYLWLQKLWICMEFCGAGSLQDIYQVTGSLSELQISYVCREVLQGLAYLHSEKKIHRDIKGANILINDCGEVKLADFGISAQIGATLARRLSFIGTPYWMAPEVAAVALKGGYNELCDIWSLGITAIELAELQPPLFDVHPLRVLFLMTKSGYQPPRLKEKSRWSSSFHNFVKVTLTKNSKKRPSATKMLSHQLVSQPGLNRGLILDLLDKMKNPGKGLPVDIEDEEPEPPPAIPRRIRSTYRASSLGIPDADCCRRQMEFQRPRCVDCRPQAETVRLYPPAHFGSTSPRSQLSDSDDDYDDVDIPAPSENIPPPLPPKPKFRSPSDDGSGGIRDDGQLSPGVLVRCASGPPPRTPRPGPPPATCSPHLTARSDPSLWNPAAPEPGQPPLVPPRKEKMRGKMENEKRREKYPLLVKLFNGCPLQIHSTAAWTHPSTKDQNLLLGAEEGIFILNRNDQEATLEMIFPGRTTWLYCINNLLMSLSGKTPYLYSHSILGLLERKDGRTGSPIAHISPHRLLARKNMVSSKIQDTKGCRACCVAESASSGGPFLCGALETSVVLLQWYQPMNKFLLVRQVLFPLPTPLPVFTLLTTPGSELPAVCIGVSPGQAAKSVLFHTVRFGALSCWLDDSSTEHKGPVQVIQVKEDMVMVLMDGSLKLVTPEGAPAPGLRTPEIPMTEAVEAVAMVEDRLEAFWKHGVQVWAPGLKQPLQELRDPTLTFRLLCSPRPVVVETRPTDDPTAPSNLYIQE
Description: as §1
EXAMPLE 353. HPK1 is expressed in all hematopoietic cells examined to date, including T cells, B cells, dendritic cells and neutrophils. Because the breath of therapeutic approaches might involve the use of Chimeric Antigen Receptor (CAR) T cells, dendritic cells, TCR transgenic T cells and Tumor Infiltrating Lymphocytes (TILs), selected HPK1 degraders were evaluated to determine whether they could degrade HPK1 effectively in some of these cell types. […] Potent degradation of HPK1 by HPK1 degraders was also observed in the human DC1 dendritic cells.

human PBMCs = test: Intracellular IFNγ and TNFα staining of human PBMC (FACS); assay type: cell-based; settings: in combination with blinatumomab
Source text: EXAMPLE 355. One of the mechanisms employed by PBMC to kill their target cells is by releasing IFNγ and TNFα production. These inflammatory cytokines are known have potent cytolytic effects on cancer cells. […] Mediated PBMC killing of the Raji cells is most evident at PBMC:Raji ratio of 5:1 (FIG. 13).
To determine the number of CD19^+ Raji cells killed by human PBMC that were activated by the Blinatumomab-mediated activation, we used CountBright cell counting beads to estimate the number of cells remained after 72 hours of co-culturing of PBMC and Raji. As for the intracellular staining of the TNFα and the IFNγ, the standard para-formaldehyde-based “fix and perm” procedure was used in order to quantitate the amount of intracellular cytokine trapped inside the cells by brefeldin A. FACS analysis of stained cells is performed by BD's LSR II FACS.

T1 sequence (Q92918 whole entry): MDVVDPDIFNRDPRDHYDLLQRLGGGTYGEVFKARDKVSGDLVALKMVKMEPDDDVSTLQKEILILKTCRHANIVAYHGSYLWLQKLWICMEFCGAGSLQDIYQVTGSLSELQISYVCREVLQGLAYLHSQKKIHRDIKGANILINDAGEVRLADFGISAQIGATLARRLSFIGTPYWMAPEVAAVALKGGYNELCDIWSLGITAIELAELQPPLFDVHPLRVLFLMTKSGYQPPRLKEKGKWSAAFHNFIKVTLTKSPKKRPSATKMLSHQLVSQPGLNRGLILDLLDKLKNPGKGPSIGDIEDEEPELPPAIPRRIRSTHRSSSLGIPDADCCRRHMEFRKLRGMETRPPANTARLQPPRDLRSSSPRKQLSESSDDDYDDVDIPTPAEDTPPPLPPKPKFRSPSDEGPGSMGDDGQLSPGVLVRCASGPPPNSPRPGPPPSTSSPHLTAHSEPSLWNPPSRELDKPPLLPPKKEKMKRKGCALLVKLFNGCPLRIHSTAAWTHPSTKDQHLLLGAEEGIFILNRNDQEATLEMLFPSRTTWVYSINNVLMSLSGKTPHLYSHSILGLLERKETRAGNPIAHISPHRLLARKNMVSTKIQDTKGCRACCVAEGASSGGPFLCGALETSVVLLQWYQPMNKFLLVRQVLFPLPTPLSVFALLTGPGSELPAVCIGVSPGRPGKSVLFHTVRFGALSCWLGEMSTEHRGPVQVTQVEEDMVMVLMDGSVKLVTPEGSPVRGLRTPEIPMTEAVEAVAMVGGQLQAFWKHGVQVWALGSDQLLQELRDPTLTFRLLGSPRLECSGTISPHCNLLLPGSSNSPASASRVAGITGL

Row | Structure (SMILES) | reducing HPK1 protein levels (HPK1 [1]) | IL-2 response profile, rank within the HC90 series (Jurkat T cells) | also measured
1 | Cc1[nH]c(/C=C2\C(=O)Nc3ccc(F)cc32)c(C)c1C(=O)NCCCN1CCN(CC(=O)NCCCCCNc2cccc3c2C(=O)N(C2CCC(=O)NC2=O)C3=O)CC1 (stereo not shown) [HC58-75, (Z)—N-(3-(4-(2-((5-((2-(2,6-dioxopiperidin-3-yl)-1,3-dioxoisoindolin-4-yl)amino)pentyl)amino)-2-oxoethyl)piperazin-1-yl)propyl)-5-((5-fluoro-2-oxoindolin-3-ylidene)methyl)-2,4-dimethyl-1H-pyrrole-3-carboxamide] | especially effective in reducing HPK1 protein levels |  | CD28-independent IL-2 production (CD4+ T cells): CD28-independent IL-2 production; endogenous level of HPK1 (HPK1 [1]; Jurkat T cells, multiple day post exposure (FIG. 3)): could reduce the endogenous level of HPK1; IL-2 production without CD28 co-receptor engagement [2]: could produce IL-2 without the help of CD28 co-receptor engagement; IL-2 production compared with the DMSO-treated counterpart (primary murine T cells): produced more IL-2 than the DMSO-treated counterpart
2 | COc1cccc(F)c1-c1ncc2[nH]nc(-c3ccc(N4CCN(C(=O)CCCNc5cccc6c5C(=O)N(C5CCC(=O)NC5=O)C6=O)CC4)cc3)c2n1 (stereo not shown) [HC90-51, 2-(2,6-dioxopiperidin-3-yl)-4-((4-(4-(4-(5-(2-fluoro-6-methoxyphenyl)-1H-pyrazolo[4,3-d]pyrimidin-3-yl)phenyl)piperazin-1-yl)-4-oxobutyl)amino)isoindoline-1,3-dione] | especially effective in reducing HPK1 protein levels | top two compounds from the HC90 series | 
3 | Cc1[nH]c(/C=C2\C(=O)Nc3ccc(F)cc32)c(C)c1C(=O)NCCCN1CCN(CC(=O)NCCCCCCNc2cccc3c2C(=O)N(C2CCC(=O)NC2=O)C3=O)CC1 (stereo not shown) [HC58-76, (Z)—N-(3-(4-(2-((6-((2-(2,6-dioxopiperidin-3-yl)-1,3-dioxoisoindolin-4-yl)amino)hexyl)amino)-2-oxoethyl)piperazin-1-yl)propyl)-5-((5-fluoro-2-oxoindolin-3-ylidene)methyl)-2,4-dimethyl-1H-pyrrole-3-carboxamide] | especially effective in reducing HPK1 protein levels |  | degradation of HPK1 protein in primary T cells compared with Jurkat T cells (HPK1 [3]): could degrade more HPK1 protein in primary T cells than in Jurkat T cells
4 | COc1cccc(F)c1-c1ncc2[nH]nc(-c3ccc(N4CCN(C(=O)CCNc5cccc6c5C(=O)N(C5CCC(=O)NC5=O)C6=O)CC4)cc3)c2n1 (stereo not shown) [HC90-50, 2-(2,6-dioxopiperidin-3-yl)-4-((3-(4-(4-(5-(2-fluoro-6-methoxyphenyl)-1H-pyrazolo[4,3-d]pyrimidin-3-yl)phenyl)piperazin-1-yl)-3-oxopropyl)amino)isoindoline-1,3-dione] | especially effective in reducing HPK1 protein levels | top two compounds from the HC90 series | percentage of human PBMCs that express high level of IFNγ and TNFα (human PBMCs): significantly increased
5 | Cc1[nH]c(/C=C2\C(=O)Nc3ccc(F)cc32)c(C)c1C(=O)NCCCN1CCN(C(=O)CCCCNc2cccc3c2C(=O)N(C2CCC(=O)NC2=O)C3=O)CC1 (stereo not shown) [HC58-38, (Z)—N-(3-(4-(5-((2-(2,6-dioxopiperidin-3-yl)-1,3-dioxoisoindolin-4-yl)amino)pentanoyl)piperazin-1-yl)propyl)-5-((5-fluoro-2-oxoindolin-3-ylidene)methyl)-2,4-dimethyl-1H-pyrrole-3-carboxamide] | especially effective in reducing HPK1 protein levels |  | 
